From US20230085307A1, “PYRIDAZINONE COMPOUND AND HERBICIDE” (NISSAN CHEMICAL CORPORATION, priority 2019, published 2023)

Legend:
[1] = tested on: late watergrass; assay: Test Example 2: herbicidal activity, application during weed generation under submerged conditions (Table 17, symbol A); type: in vivo, late watergrass (Echinochloa oryzicola); settings: AAH 320 g/ha; application during weed generation, submerged conditions
How it was run: (§1)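 Herbicide emulsion, diluted with water to the chosen amount, is applied onto 4 cm floodwater over alluvial soil where the weeds were co-sown and raised at 25–30° C. Application timing: 1–2 leaves. Assessment: three weeks afterwards.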

[2] = tested on: Japanese bulrush; assay: Test Example 2: herbicidal activity, application during weed generation under submerged conditions (Table 17, symbol B); type: in vivo, Japanese bulrush (Schoenoplectus juncoides); settings: AAH 320 g/ha; application during weed generation, submerged conditions
How it was run: as §1

[3] = tested on: oval-leafed pondweed; assay: Test Example 2: herbicidal activity, application during weed generation under submerged conditions (Table 17, symbol C); type: in vivo, oval-leafed pondweed (Monochoria vaginalis); settings: AAH 320 g/ha; application during weed generation, submerged conditions
How it was run: as §1

[4] = tested on: barnyard grass; assay: Test Example 3: herbicidal effect by foliage application, Wagner pot (Table 18, symbol H); type: in vivo, barnyard grass (Echinochloa crus-galli); settings: 320 g/ha
How it was run: (§2)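 Plants were sown in alluvial soil held under 0.1–0.5 cm standing water and grown 14 days in a greenhouse at 25–30 °C. An emulsifiable formulation, water-diluted to the set dose, was then sprayed onto the foliage, and effects were scored three weeks later using previously defined criteria.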

[5] = tested on: Chinese sprangletop; assay: Test Example 3: herbicidal effect by foliage application, Wagner pot (Table 18, symbol D); type: in vivo, chinese sprangletop (Leptochloa chinensis); settings: 320 g/ha
How it was run: as §2

[6] = tested on: rice flat sedge; assay: Test Example 3: herbicidal effect by foliage application, Wagner pot (Table 18, symbol E); type: in vivo, rice flat sedge (Cyperus iria); settings: 320 g/ha
How it was run: as §2

[7] = tested on: southern crabgrass; assay: Test Example 4: herbicidal effect by soil treatment (Table 19, symbol F); type: in vivo, southern crabgrass (Digitaria ciliaris); settings: amount of applied herbicide 320 g/ha
How it was run: (§3)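 Three weeks of greenhouse growth at 25° C. to 30° C. followed a uniform surface spray of water-diluted emulsion at a predetermined herbicide amount. Seeds had been sown beforehand under about 1.5 cm of sterilized diluvial soil. Grading followed criteria set out in an earlier test.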

[8] = tested on: green foxtail; assay: Test Example 4: herbicidal effect by soil treatment (Table 19, symbol G); type: in vivo, green foxtail (Setaria viridis); settings: amount of applied herbicide 320 g/ha
How it was run: as §3

[9] = tested on: barnyard grass; assay: Test Example 4: herbicidal effect by soil treatment (Table 19, symbol H); type: in vivo, barnyard grass (Echinochloa crus-galli); settings: amount of applied herbicide 320 g/ha
How it was run: as §3

[10] = tested on: wild oat; assay: Test Example 4: herbicidal effect by soil treatment (Table 19, symbol I); type: in vivo, wild oat (Avena fatua); settings: amount of applied herbicide 320 g/ha
How it was run: as §3

[11] = tested on: blackgrass; assay: Test Example 4: herbicidal effect by soil treatment (Table 19, symbol J); type: in vivo, blackgrass (Alopecurus myosuroides); settings: amount of applied herbicide 320 g/ha
How it was run: as §3

[12] = tested on: Italian ryegrass; assay: Test Example 4: herbicidal effect by soil treatment (Table 19, symbol K); type: in vivo, Italian ryegrass (Lolium multiflorum); settings: amount of applied herbicide 320 g/ha
How it was run: as §3

[13] = tested on: windgrass; assay: Test Example 4: herbicidal effect by soil treatment (Table 19, symbol L); type: in vivo, windgrass (Apera spica-venti); settings: amount of applied herbicide 320 g/ha
How it was run: as §3

[14] = tested on: velvetleaf; assay: Test Example 4: herbicidal effect by soil treatment (Table 19, symbol M); type: in vivo, velvetleaf (Abutilon theophrasti); settings: amount of applied herbicide 320 g/ha
How it was run: as §3

[15] = tested on: redroot pigweed; assay: Test Example 4: herbicidal effect by soil treatment (Table 19, symbol N); type: in vivo, redroot pigweed (Amaranthus retroflexus); settings: amount of applied herbicide 320 g/ha
How it was run: as §3

[16] = tested on: lambsquarters; assay: Test Example 4: herbicidal effect by soil treatment (Table 19, symbol O); type: in vivo, lambsquarters (Chenopodium album); settings: amount of applied herbicide 320 g/ha
How it was run: as §3

[17] = tested on: chickweed; assay: Test Example 4: herbicidal effect by soil treatment (Table 19, symbol P); type: in vivo, common chickweed (Stellaria media); settings: amount of applied herbicide 320 g/ha
How it was run: as §3

[18] = tested on: persian speedwell; assay: Test Example 4: herbicidal effect by soil treatment (Table 19, symbol R); type: in vivo, Persian speedwell (Veronica persica); settings: amount of applied herbicide 320 g/ha
How it was run: as §3

[19] = tested on: southern crabgrass; assay: Test Example 5: herbicidal effect by foliage application, plastic box (Table 20, symbol F); type: in vivo, southern crabgrass (Digitaria ciliaris); settings: amount of applied herbicide 320 g/ha; foliage application after 14-day growth; evaluated three weeks after application
How it was run: (§4)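 Plants sown in sterilized diluvial soil and grown 14 days in a greenhouse at 25° C to 30° C, then sprayed on the foliage with the compound's emulsion diluted in water to a predetermined herbicide amount. Injury to weeds and crops scored three weeks after application on a visual rating scale.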

[20] = tested on: green foxtail; assay: Test Example 5: herbicidal effect by foliage application, plastic box (Table 20, symbol G); type: in vivo, green foxtail (Setaria viridis); settings: amount of applied herbicide 320 g/ha; foliage application after 14-day growth; evaluated three weeks after application
How it was run: as §4

[21] = tested on: barnyard grass; assay: Test Example 5: herbicidal effect by foliage application, plastic box (Table 20, symbol H); type: in vivo, barnyard grass (Echinochloa crus-galli); settings: amount of applied herbicide 320 g/ha; foliage application after 14-day growth; evaluated three weeks after application
How it was run: as §4

[22] = tested on: wild oat; assay: Test Example 5: herbicidal effect by foliage application, plastic box (Table 20, symbol I); type: in vivo, wild oat (Avena fatua); settings: amount of applied herbicide 320 g/ha; foliage application after 14-day growth; evaluated three weeks after application
How it was run: as §4

[23] = tested on: blackgrass; assay: Test Example 5: herbicidal effect by foliage application, plastic box (Table 20, symbol J); type: in vivo, blackgrass (Alopecurus myosuroides); settings: amount of applied herbicide 320 g/ha; foliage application after 14-day growth; evaluated three weeks after application
How it was run: as §4

[24] = tested on: Italian ryegrass; assay: Test Example 5: herbicidal effect by foliage application, plastic box (Table 20, symbol K); type: in vivo, Italian ryegrass (Lolium multiflorum); settings: amount of applied herbicide 320 g/ha; foliage application after 14-day growth; evaluated three weeks after application
How it was run: as §4

[25] = tested on: windgrass; assay: Test Example 5: herbicidal effect by foliage application, plastic box (Table 20, symbol L); type: in vivo, windgrass (Apera spica-venti); settings: amount of applied herbicide 320 g/ha; foliage application after 14-day growth; evaluated three weeks after application
How it was run: as §4

[26] = tested on: velvetleaf; assay: Test Example 5: herbicidal effect by foliage application, plastic box (Table 20, symbol M); type: in vivo, velvetleaf (Abutilon theophrasti); settings: amount of applied herbicide 320 g/ha; foliage application after 14-day growth; evaluated three weeks after application
How it was run: as §4

[27] = tested on: redroot pigweed; assay: Test Example 5: herbicidal effect by foliage application, plastic box (Table 20, symbol N); type: in vivo, redroot pigweed (Amaranthus retroflexus); settings: amount of applied herbicide 320 g/ha; foliage application after 14-day growth; evaluated three weeks after application
How it was run: as §4

[28] = tested on: lambsquarters; assay: Test Example 5: herbicidal effect by foliage application, plastic box (Table 20, symbol O); type: in vivo, lambsquarters (Chenopodium album); settings: amount of applied herbicide 320 g/ha; foliage application after 14-day growth; evaluated three weeks after application
How it was run: as §4

[29] = tested on: chickweed; assay: Test Example 5: herbicidal effect by foliage application, plastic box (Table 20, symbol P); type: in vivo, common chickweed (Stellaria media); settings: amount of applied herbicide 320 g/ha; foliage application after 14-day growth; evaluated three weeks after application
How it was run: as §4

[30] = tested on: persian speedwell; assay: Test Example 5: herbicidal effect by foliage application, plastic box (Table 20, symbol R); type: in vivo, Persian speedwell (Veronica persica); settings: amount of applied herbicide 320 g/ha; foliage application after 14-day growth; evaluated three weeks after application
How it was run: as §4

Cc1nn(C)c(=O)c(-c2c(-c3ccccc3OC(F)F)sc3cc(F)c(F)cc23)c1O [5-021]
herbicidal effect rating, A: late watergrass [1]: 0 (Herbicidal rate of 5% or less (almost no effect))
herbicidal effect rating, B: Japanese bulrush [2]: 2 (Herbicidal rate of 20% or more and less than 40%)
herbicidal effect rating, C: oval-leafed pondweed [3]: 0 (Herbicidal rate of 5% or less (almost no effect))
herbicidal effect on barnyard grass (H) [4]: 4 (Herbicidal rate of 70% or more and less than 90%)
herbicidal effect on Chinese sprangletop (D) [5]: 3 (Herbicidal rate of 40% or more and less than 70%)
herbicidal effect on rice flat sedge (E) [6]: 5 (Herbicidal rate of 90% or more (almost completely withered))
F: southern crabgrass, herbicidal effect grade [7]: 5 (Herbicidal rate of 90% or more (almost completely withered))
G: green foxtail, herbicidal effect grade [8]: 5 (Herbicidal rate of 90% or more (almost completely withered))
H: barnyard grass, herbicidal effect grade [9]: 4 (Herbicidal rate of 70% or more and less than 90%)
I: wild oat, herbicidal effect grade [10]: 0 (Herbicidal rate of 5% or less (almost no effect))
J: blackgrass, herbicidal effect grade [11]: 0 (Herbicidal rate of 5% or less (almost no effect))
K: Italian ryegrass, herbicidal effect grade [12]: 0 (Herbicidal rate of 5% or less (almost no effect))
L: windgrass, herbicidal effect grade [13]: 4 (Herbicidal rate of 70% or more and less than 90%)
M: velvetleaf, herbicidal effect grade [14]: 4 (Herbicidal rate of 70% or more and less than 90%)
N: redroot pigweed, herbicidal effect grade [15]: 4 (Herbicidal rate of 70% or more and less than 90%)
O: lambsquarters, herbicidal effect grade [16]: 3 (Herbicidal rate of 40% or more and less than 70%)
P: chickweed, herbicidal effect grade [17]: 2 (Herbicidal rate of 20% or more and less than 40%)
R: persian speedwell, herbicidal effect grade [18]: 5 (Herbicidal rate of 90% or more (almost completely withered))
Herbicidal effect by foliage application, F: southern crabgrass [19]: 5 (Herbicidal rate of 90% or more (almost completely withered))
Herbicidal effect by foliage application, G: green foxtail [20]: 5 (Herbicidal rate of 90% or more (almost completely withered))
Herbicidal effect by foliage application, H: barnyard grass [21]: 4 (Herbicidal rate of 70% or more and less than 90%)
Herbicidal effect by foliage application, I: wild oat [22]: 2 (Herbicidal rate of 20% or more and less than 40%)
Herbicidal effect by foliage application, J: blackgrass [23]: 4 (Herbicidal rate of 70% or more and less than 90%)
Herbicidal effect by foliage application, K: Italian ryegrass [24]: 4 (Herbicidal rate of 70% or more and less than 90%)
Herbicidal effect by foliage application, L: windgrass [25]: 5 (Herbicidal rate of 90% or more (almost completely withered))
Herbicidal effect by foliage application, M: velvetleaf [26]: 5 (Herbicidal rate of 90% or more (almost completely withered))
Herbicidal effect by foliage application, N: redroot pigweed [27]: 4 (Herbicidal rate of 70% or more and less than 90%)
Herbicidal effect by foliage application, O: lambsquarters [28]: 3 (Herbicidal rate of 40% or more and less than 70%)
Herbicidal effect by foliage application, P: chickweed [29]: 5 (Herbicidal rate of 90% or more (almost completely withered))
Herbicidal effect by foliage application, R: persian speedwell [30]: 5 (Herbicidal rate of 90% or more (almost completely withered))
